How the values were obtained:
Assay type in all cases: cell-based
[1] = system: INS1 cells expressing mCherry-GFP; assay: mCherry-GFP-Fis1101-152 determination of mitophagy
Text: To corroborate the increase in mitochondrial clearance, we determined mitophagy by testing the compounds in INS1 cells expressing mCherry-GFP, a mitochondrial probe that emits green and red fluorescence under physiologic pH but red fluorescence only under acidic pH (such as that occurring in autolysosomes) and is therefore used for quantifying mitophagy. Unlike MitoTimer, which captures the accumulating effect of mitochondrial turnover, mCherry-GFP captures mitophagy at the time that it occurs. Since the timing of the induction of mitophagy by the hits was not known, we did a time-lapse. The cells were treated with the hits for 2, 8 and 18 hours. While after 2 hours and 18 hours, the molecules tended to increase the number of mitochondria inside autophagosomes (data not shown), only after 8 hours was this increase significant.
mCherry-GFP-Fis1101-152 determination of mitophagy. INS1 cells were seeded into 4 compartment […]™ glass bottom cell culture dishes at a density of 2*10^4 cells/compartment. After 48 hours cells were transduced with an adenoviral construct encoding the fluorescent mitophagy reporter mCherry-GFP-Fis1101-152 for 24 hours. A media change containing the indicated treatment concentration or 0.1% DMSO as vehicle control was performed 8 hours before the imaging session. Imaging was performed using a 63× Plan Neofluar objective and the Airyscan module of a Zeiss LSM880 confocal microscope. 25 visual fields containing 59-85 cells in total were imaged per condition. The experiment was repeated three times independently. Image analysis was performed with FIJI ImageJ 1.51p and CellProfiler 2.2.0 rev ac0529e. Briefly, individual cells were cropped and background was subtracted using a median filter assisted processing method (Dunn, K. W., Kamocka, M. M. McDonald, J. H. (2011) A practical guide to evaluating colocalization in biological microscopy. Am. J. Physiol. Cell Physiol. 300, C723-C742). Ratios of red/green fluorescence channels were computed and mitophagy positive structures were recognized based on a lower ratio cut-off of 2.5 of red over green. Mitophagy events per cell were determined by the following formula. […]
Data were normalized to DMSO controls to account for day to day variation. […] Significant treatment differences were determined using One-way ANOVA and Tukey post-hoc analysis. […]
The impact of the hits on mitochondrial turnover was further confirmed by a mitophagy-specific assay, a protein with a tandem mCherry-GFP tag attached to the localization signal of the protein FIS at the OMM. […] When mitochondria enter the lysosomes, the GFP fluorescence is quenched, the remaining red fluorescence is seen as red puncta, representing the undergoing mitophagy events.

[2] = system: INS1 cells; assay: Anion radical superoxide (Mitosox); conditions: 25 uM
Protocol: INS1 cells were treated for 24 h with SPB08007 (25 uM) or DMSO (0.1%). Mitochondrial membrane potential was analyzed cell by cell through TMRE staining corrected by Mitotracker Green (MTG). Cells were imaged using a 100× Plan Neofluar objective and the Airyscan module of a Zeiss LSM880 confocal microscope. […] Each experiment was repeated 2 times, 59-85 cells of each group were analyzed in each experiment for TMRE/MTG, and 48 fields were analyzed in each experiment for Mitosox analysis. *p<0.05 vs. DMSO; ***p<0.05 vs. DMSO and SPB08007.
Mitotracker Green Fluorescence, Anion Radical Superoxide and Mitochondrial Membrane Potential. INS1 cells were seeded into wells of a 96-wells glass bottom cell culture plate (CELLSTAR) at a density of 2*10^4 cells/well. To assess mitochondrial clearance, a pulse-chase experiment was performed. Briefly, cells were stained with MTG (Molecular Probes) 500 nM for 30 min, washed, and treated with (25 uM) or DMSO 0.1%. After 18 h, cells were imaged using a 40× lens of a Perkin Elmer Operetta high-content imaging system microscope. Results are expressed as the percentage of MTG fluorescence relative to MTG fluorescence of the “time 0” control. […] Integrated fluorescence of each field was analyzed in Image J after background subtraction and threshold (IsoData) application. Twenty-four fields of each condition were analyzed in each experiment.

[3] = system: INS1 cells; assay: Ubiquitinated mitochondrial proteins (anti-ubiquitin blot); conditions: 25 uM, 24 h
Protocol: INS1 cells were treated with SPB08007 (25 uM) or DMSO (0.1%) for 24 h. FIG. 17A: total mitochondrial protein isolated from 4×10^7 cells were loaded into SDS-PAGE gel previously added of Stain Free reagent, which was used to detect total protein bands in the BioRad Bio Lab gel reader. Protein was transferred into PVDF membrane, blotted to anti-ubiquitin. FIG. 17B: Quantification of total ubiquitin relative to total mitochondrial proteins. The quantification is expressed relative to DMSO, control. *p=0.001.
Cell treatments and mitochondrial extraction. INS1 cells were treated with SBP08007 or MWP00839 25 uM for 24 h. Mitochondrial and cytosolic fractions from INS1 cells were performed by using the Mitochondria Isolation Kit for Cultured Cells (Pierce). INS1 cells were lysed in a hypotonic buffer (10 mM NaCl, 1.5 mM MgCl2, and 10 mM Tris.HCl, pH 7.5), and mitochondria were extracted in a Dounce homogenizer in mitochondrial buffer (1 mM EDTA, 210 mM mannitol, 70 mM sucrose, and 5 mM Tris.HCl, 7.5), followed by centrifugation at 1,300×g for 10 min at 4° C. The supernatant was further centrifuged at 17,000×g for 15 min at 4° C. to pellet the mitochondria. […]
Western blot. […] Stain free total protein labeling was imaged in Image Lab 6.0 Software (BioRad), which was used for quantification of the mitochondria and normalization to total protein staining.

SMILES: CC(=O)N/C(=C\c1sc2ccccc2c1C)C(=O)O [SPB08007]
- time of peak formation of acidic puncta ([1]; 25 uM): 8 h
- number of acidic puncta (mitophagy events per cell) ([1]; 25 uM, 8 h, vs DMSO): significantly increased
- number of mitophagy events at 18 h ([1]; 25 uM, 18 h): returned to control levels
- number of red fluorescent dots in acidic vesicles (mitophagy) ([1]; 8 hours): increased
- anion radical superoxide formation (Mitosox) [2]: unaffected
- ubiquitination of mitochondrial proteins [3]: less ubiquitinated
